Numbers after ± are expanded uncertainties.
Assay: activity coefficient (dimensionless); of the first substance listed, at infinite dilution; xn = mol fraction of the nth substance listed
Settings: Liquid, Chromatography, x1 = 0

Row | SMILES | activity coefficient (303.15 K) | activity coefficient (308.15 K) | activity coefficient (313.15 K) | activity coefficient (318.15 K)
1 | c1ccccc1 [benzene] + CC(CC(C)(C)C)CP(=O)([O-])CC(C)CC(C)(C)C.CCCCCCCCCCCCCC[P+](CCCCCC)(CCCCCC)CCCCCC | 0.44 ± 0.04 | 0.47 ± 0.04 | 0.48 ± 0.05 | 0.49 ± 0.05
2 | C=CCCC [1-pentene] + CC(CC(C)(C)C)CP(=O)([O-])CC(C)CC(C)(C)C.CCCCCCCCCCCCCC[P+](CCCCCC)(CCCCCC)CCCCCC | 0.59 ± 0.05 | 0.61 ± 0.05 | 0.62 ± 0.05 | 0.64 ± 0.06
3 | C#CCCCCC [1-heptyne] + CC(CC(C)(C)C)CP(=O)([O-])CC(C)CC(C)(C)C.CCCCCCCCCCCCCC[P+](CCCCCC)(CCCCCC)CCCCCC | 0.33 ± 0.04 | 0.35 ± 0.04 | 0.39 ± 0.04 | 0.41 ± 0.04
4 | C#CCCCCCC [1-octyne] + CC(CC(C)(C)C)CP(=O)([O-])CC(C)CC(C)(C)C.CCCCCCCCCCCCCC[P+](CCCCCC)(CCCCCC)CCCCCC | 0.28 ± 0.03 | 0.33 ± 0.04 | 0.36 ± 0.04 | 0.39 ± 0.04
5 | C#CCCCC [1-hexyne] + CC(CC(C)(C)C)CP(=O)([O-])CC(C)CC(C)(C)C.CCCCCCCCCCCCCC[P+](CCCCCC)(CCCCCC)CCCCCC | 0.38 ± 0.04 | 0.4 ± 0.04 | 0.43 ± 0.04 | 0.46 ± 0.04
6 | C1CCCCC1 [cyclohexane] + CC(CC(C)(C)C)CP(=O)([O-])CC(C)CC(C)(C)C.CCCCCCCCCCCCCC[P+](CCCCCC)(CCCCCC)CCCCCC | 0.51 ± 0.05 | 0.52 ± 0.05 | 0.54 ± 0.05 | 0.56 ± 0.05
7 | C1CCCCCC1 [cycloheptane] + CC(CC(C)(C)C)CP(=O)([O-])CC(C)CC(C)(C)C.CCCCCCCCCCCCCC[P+](CCCCCC)(CCCCCC)CCCCCC | 0.56 ± 0.05 | 0.56 ± 0.05 | 0.58 ± 0.05 | 0.6 ± 0.05
8 | C1CCCC1 [cyclopentane] + CC(CC(C)(C)C)CP(=O)([O-])CC(C)CC(C)(C)C.CCCCCCCCCCCCCC[P+](CCCCCC)(CCCCCC)CCCCCC | 0.45 ± 0.04 | 0.46 ± 0.04 | 0.48 ± 0.05 | 0.5 ± 0.05

The next lines start with the values.

Row | activity coefficient (303.15 K) | activity coefficient (308.15 K) | activity coefficient (313.15 K) | activity coefficient (318.15 K) | SMILES
9 | 0.77 ± 0.07 | 0.79 ± 0.07 | 0.81 ± 0.07 | 0.83 ± 0.07 | CCCCCCC [heptane] + CC(CC(C)(C)C)CP(=O)([O-])CC(C)CC(C)(C)C.CCCCCCCCCCCCCC[P+](CCCCCC)(CCCCCC)CCCCCC
10 | 0.75 ± 0.06 | 0.76 ± 0.06 | 0.78 ± 0.07 | 0.81 ± 0.07 | C=CCCCCCC [oct-1-ene] + CC(CC(C)(C)C)CP(=O)([O-])CC(C)CC(C)(C)C.CCCCCCCCCCCCCC[P+](CCCCCC)(CCCCCC)CCCCCC
11 | 0.63 ± 0.06 | 0.65 ± 0.06 | 0.68 ± 0.06 | 0.7 ± 0.06 | C=CCCCC [hex-1-ene] + CC(CC(C)(C)C)CP(=O)([O-])CC(C)CC(C)(C)C.CCCCCCCCCCCCCC[P+](CCCCCC)(CCCCCC)CCCCCC
12 | 0.71 ± 0.06 | 0.73 ± 0.06 | 0.73 ± 0.06 | 0.75 ± 0.06 | CCCCCC [hexane] + CC(CC(C)(C)C)CP(=O)([O-])CC(C)CC(C)(C)C.CCCCCCCCCCCCCC[P+](CCCCCC)(CCCCCC)CCCCCC
13 | 0.66 ± 0.06 | 0.69 ± 0.06 | 0.7 ± 0.06 | 0.71 ± 0.06 | CCCCC [pentane] + CC(CC(C)(C)C)CP(=O)([O-])CC(C)CC(C)(C)C.CCCCCCCCCCCCCC[P+](CCCCCC)(CCCCCC)CCCCCC
14 | 0.79 ± 0.07 | 0.82 ± 0.07 | 0.85 ± 0.07 | 0.86 ± 0.07 | CCCCCCCC [octane] + CC(CC(C)(C)C)CP(=O)([O-])CC(C)CC(C)(C)C.CCCCCCCCCCCCCC[P+](CCCCCC)(CCCCCC)CCCCCC
